Experimental findings from ChEMBL document CHEMBL5346971, “Discovery of the First Irreversible HDAC6 Isoform Selective Inhibitor with Potent Anti-Multiple Myeloma Activity” (J Med Chem, 2023) are described below.

The IC50 is the concentration that inhibits the measured activity by half.

Data set [1] addresses T1, Protein deacetylase HDAC6 (Homo sapiens) (UniProt Q9UBN7).
T1 sequence (whole entry): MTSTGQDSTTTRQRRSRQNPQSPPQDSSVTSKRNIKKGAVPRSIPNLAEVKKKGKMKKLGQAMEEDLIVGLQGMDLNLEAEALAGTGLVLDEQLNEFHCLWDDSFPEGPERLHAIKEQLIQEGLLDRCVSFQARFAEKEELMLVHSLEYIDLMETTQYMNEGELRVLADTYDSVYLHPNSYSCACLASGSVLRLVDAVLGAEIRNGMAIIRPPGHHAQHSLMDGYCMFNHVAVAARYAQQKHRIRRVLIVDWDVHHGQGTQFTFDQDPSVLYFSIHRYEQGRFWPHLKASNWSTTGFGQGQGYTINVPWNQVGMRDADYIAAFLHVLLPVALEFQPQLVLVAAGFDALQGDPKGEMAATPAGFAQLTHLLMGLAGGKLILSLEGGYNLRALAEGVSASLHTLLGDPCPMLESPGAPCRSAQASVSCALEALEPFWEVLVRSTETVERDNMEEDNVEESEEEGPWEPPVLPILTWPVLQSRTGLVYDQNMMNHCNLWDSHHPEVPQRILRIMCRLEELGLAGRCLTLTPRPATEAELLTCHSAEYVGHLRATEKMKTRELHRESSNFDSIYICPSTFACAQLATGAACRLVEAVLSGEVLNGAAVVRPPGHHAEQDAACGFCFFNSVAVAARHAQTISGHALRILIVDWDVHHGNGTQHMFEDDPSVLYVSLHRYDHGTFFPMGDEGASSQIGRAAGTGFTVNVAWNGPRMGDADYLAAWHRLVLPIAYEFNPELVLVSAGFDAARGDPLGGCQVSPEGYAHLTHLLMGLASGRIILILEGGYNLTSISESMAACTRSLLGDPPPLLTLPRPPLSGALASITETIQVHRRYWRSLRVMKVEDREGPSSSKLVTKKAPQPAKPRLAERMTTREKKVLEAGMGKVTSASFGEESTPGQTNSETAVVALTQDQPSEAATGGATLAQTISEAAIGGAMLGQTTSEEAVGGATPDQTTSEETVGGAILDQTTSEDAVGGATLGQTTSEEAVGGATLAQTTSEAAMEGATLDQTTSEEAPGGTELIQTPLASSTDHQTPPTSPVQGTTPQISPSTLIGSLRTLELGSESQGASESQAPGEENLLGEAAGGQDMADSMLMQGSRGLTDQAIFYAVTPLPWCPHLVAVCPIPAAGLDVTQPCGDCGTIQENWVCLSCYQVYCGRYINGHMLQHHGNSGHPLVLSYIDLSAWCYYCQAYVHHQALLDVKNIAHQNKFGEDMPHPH
Kind of data set: Irreversible inhibition of HDAC6 in human A549 cells assessed as acetyl alpha-tubulin level at 0.4 uM incubated for 5 hrs followed by drug wash-out and measured immediately after drug wash-out by western blot analysis relative to control. It counts as cell-based.

For data set [2], the system named is RPMI-8226. Nature of the data set: Induction of apoptosis in human RPMI-8226 cells assessed as proportion of viable cells at 0.5 uM incubated for 24 hrs by AnnexinV-FITC/PI staining based flow cytometry (reference value: 84.71%). The format is functional, cell-based. In general terms: In flow cytometry, cells or beads pass a laser one at a time.
Data set [3] has as its target T2, Class 1 histone deacetylase (Homo sapiens) (UniProt Q13547+O15379+Q92769+Q9BY41). Nature of the data set: Irreversible inhibition of class 1 HDAC in human A549 cells assessed as acetyl histone H4 level at 0.4 uM incubated for 5 hrs followed by drug wash-out for 24 hrs by western blot analysis relative to control. The format is cell-based. In general terms: Immunoblotting shows a protein as a band on a membrane.

Data set [4] concerns the target T2, Class 1 histone deacetylase (Homo sapiens). Nature of the data set: Irreversible inhibition of class 1 HDAC in human A549 cells assessed as acetyl histone H3 level at 0.4 uM incubated for 5 hrs followed by drug wash-out for 24 hrs by western blot analysis relative to control. The format is cell-based.
Data set [5] is described as follows: Effect on HDAC6 protein expression in human A549 cells assessed as change in HDAC6 protein expression at 0.4 uM incubated for 5 hrs followed by drug wash-out for 24 hrs by western blot analysis relative to control. The format is functional.
Data set [6] deals with T2, Class 1 histone deacetylase (Homo sapiens). Nature of the data set: Irreversible inhibition of class 1 HDAC in human A549 cells assessed as acetyl histone H4 level at 0.4 uM incubated for 5 hrs followed by drug wash-out for 1 hr by western blot analysis relative to control. The format is cell-based.
The test system of data set [7] is RPMI-8226. Nature of the data set: Induction of cell cycle arrest in human RPMI-8226 cells assessed as proportion of cells at G1 phase at 0.1 uM incubated for 24 hrs by PI staining based flow cytometry (reference value: 33.5%). It counts as functional.
Data set [8] has as its system RPMI-8226. Kind of data set: Induction of cell cycle arrest in human RPMI-8226 cells assessed as proportion of cells at G2/M phase at 0.1 uM incubated for 24 hrs by PI staining based flow cytometry (reference value: 19.8%). It counts as functional.
The target in data set [9] is T1, Protein deacetylase HDAC6 (Homo sapiens). The conditions noted are these: A549, dose 80.0 nM, time 5.0 hrs.
Data set [10] deals with T2, Class 1 histone deacetylase (Homo sapiens). Nature of the data set: Irreversible inhibition of class 1 HDAC in human A549 cells assessed as acetyl histone H4 level at 0.4 uM incubated for 5 hrs followed by drug wash-out and measured immediately after drug wash-out by western blot analysis relative to control. The format is cell-based.
A short description of data set [11]: Effect on HDAC6 protein expression in human A549 cells assessed as change in HDAC6 protein expression at 0.4 uM incubated for 5 hrs followed by drug wash-out for 6 hrs by western blot analysis relative to control. It counts as functional.
Data set [12] is described as follows: Effect on HDAC6 protein expression in human A549 cells assessed as change in HDAC6 protein expression at 0.4 uM incubated for 5 hrs followed by drug wash-out for 1 hr by western blot analysis relative to control. The format is functional.
Data set [13] is described as follows: Metabolic stability of the compound in human liver microsomes assessed as parent compound remaining measured after 60 mins in presence of NADPH by LC-MS/MS analysis. The settings on record: read-out: Stability. It counts as ADME, Microsome. Background: Liver microsomes are vesicles of endoplasmic reticulum, rich in cytochrome P450 enzymes.
Data set [14] is described as follows: Intrinsic clearance in mouse liver microsomes in presence of NADPH by LC-MS/MS analysis. The format is ADME, Microsome. The settings on record: read-out: CLH.
The target of data set [15] is T3, Protein deacetylase HDAC6 (Homo sapiens, UniProt Q9UBN7).
T3 sequence (Q9UBN7 whole entry): T1 sequence (whole entry)
Kind of data set: Inhibition of N-terminal GST-tagged human full length recombinant HDAC6 (1 to 1215 residues) expressed in Sf9 cells using Boc-Lys(acetyI)-AMC as substrate preincubated with enzyme for 1 hr followed by substrate addition and measured after 30 mins by fluorescence based analysis.

A short description of data set [16]: Metabolic stability of the compound in rat liver microsomes assessed as parent compound remaining measured after 60 mins in presence of NADPH by LC-MS/MS analysis. The conditions noted are these: read-out: Stability. It counts as ADME, Microsome.

Molecules are shown by their SMILES. Calls of active or inactive are those of the source. No cut-off for these calls is given here. Some results are limits rather than exact numbers.

T2 sequence (O15379 whole entry, looked up): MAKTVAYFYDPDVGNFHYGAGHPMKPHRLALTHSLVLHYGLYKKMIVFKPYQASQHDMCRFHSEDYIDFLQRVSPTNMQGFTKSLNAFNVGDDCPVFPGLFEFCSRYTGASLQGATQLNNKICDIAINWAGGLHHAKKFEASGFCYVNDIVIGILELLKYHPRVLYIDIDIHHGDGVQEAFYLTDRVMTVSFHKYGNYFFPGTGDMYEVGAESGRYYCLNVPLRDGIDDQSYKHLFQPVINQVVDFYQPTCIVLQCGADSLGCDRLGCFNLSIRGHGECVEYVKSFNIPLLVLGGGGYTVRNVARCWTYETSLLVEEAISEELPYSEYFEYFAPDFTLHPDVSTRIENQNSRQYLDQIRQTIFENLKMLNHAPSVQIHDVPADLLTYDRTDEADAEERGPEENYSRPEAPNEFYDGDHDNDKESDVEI
T2 sequence (Q13547 whole entry, looked up): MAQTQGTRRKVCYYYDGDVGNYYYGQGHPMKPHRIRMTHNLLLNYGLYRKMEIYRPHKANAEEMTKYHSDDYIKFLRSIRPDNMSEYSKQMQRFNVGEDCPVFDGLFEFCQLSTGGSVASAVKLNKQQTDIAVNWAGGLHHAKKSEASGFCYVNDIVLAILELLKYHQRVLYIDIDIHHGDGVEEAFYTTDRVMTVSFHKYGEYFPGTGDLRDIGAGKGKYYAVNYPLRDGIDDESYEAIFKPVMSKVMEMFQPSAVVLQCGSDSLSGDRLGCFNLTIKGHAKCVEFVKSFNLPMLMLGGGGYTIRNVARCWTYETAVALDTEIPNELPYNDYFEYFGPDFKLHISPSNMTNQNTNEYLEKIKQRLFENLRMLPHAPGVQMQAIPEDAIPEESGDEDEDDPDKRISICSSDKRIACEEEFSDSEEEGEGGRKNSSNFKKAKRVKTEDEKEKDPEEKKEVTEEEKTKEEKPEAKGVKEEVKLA
T2 sequence (Q92769 whole entry, looked up): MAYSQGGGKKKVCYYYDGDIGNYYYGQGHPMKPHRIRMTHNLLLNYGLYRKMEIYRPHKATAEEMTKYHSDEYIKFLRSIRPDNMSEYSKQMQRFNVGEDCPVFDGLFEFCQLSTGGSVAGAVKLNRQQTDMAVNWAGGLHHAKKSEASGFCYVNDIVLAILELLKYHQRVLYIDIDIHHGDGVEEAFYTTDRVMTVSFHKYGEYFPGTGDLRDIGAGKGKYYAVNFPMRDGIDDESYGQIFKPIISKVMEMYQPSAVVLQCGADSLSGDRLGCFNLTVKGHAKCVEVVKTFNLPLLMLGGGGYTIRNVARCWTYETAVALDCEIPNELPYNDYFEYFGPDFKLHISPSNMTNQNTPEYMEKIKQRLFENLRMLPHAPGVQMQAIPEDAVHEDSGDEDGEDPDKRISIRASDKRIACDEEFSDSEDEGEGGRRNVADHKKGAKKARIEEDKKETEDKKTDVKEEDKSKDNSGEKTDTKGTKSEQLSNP
T2 sequence (Q9BY41 whole entry, looked up): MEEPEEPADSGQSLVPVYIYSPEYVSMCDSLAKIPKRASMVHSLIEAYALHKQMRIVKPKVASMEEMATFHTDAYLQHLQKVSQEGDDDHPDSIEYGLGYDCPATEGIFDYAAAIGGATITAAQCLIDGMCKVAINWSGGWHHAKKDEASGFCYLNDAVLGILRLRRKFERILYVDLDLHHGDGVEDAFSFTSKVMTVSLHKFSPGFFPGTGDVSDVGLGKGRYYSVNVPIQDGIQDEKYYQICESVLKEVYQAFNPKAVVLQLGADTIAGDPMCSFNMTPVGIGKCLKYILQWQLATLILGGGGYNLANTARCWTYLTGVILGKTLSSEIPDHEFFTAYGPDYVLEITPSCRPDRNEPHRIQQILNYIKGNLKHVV

With `O=C(NO)c1ccc(COc2no[n+]([O-])c2S(=O)(=O)c2ccccc2)cc1`, the fold change (FC) was 5.2 in data set [1]; 0.6 in data set [3]; 1.2 in data set [4]; 1.3 in [5]; 1.2 in data set [6]; 0.7 in data set [10]. Further, the entries for the “fold change (FC)” value in [11] and in data set [12] were 1.1 and 1.2, respectively. In the data set with RPMI-8226 [2], the outcome was Active. The Activity in the data set on RPMI-8226 [7] was 28.8%; in the data set on RPMI-8226 [8] it was 21.4%. Further, the inhibition result in data set [9] was “Active”. Moreover, the remaining at 1 h in [13] was under 0.33%; in data set [16], 0.6%. Also, the CLint scaled in data set [14] amounted to 2990 mL/min/kg. The IC50 in data set [15] worked out at 33 nM.
